Reference: PMC5335257, “Promoting in vivo remyelination with small molecules: a neuroreparative pharmacological treatment for Multiple Sclerosis” (Scientific Reports, 2017)

Key:
[1] = tested on: OPCs from P0 mice; assay: Proliferation assay (BrdU incorporation); format: cell-based, mouse; settings: murine P0 OPCs, 1 μM, 72 h
Procedure: We isolated OPCs, as previously described. Briefly, a stock papain solution was prepared containing ([…]; Worthington Biochemical), L-cysteine (0.2 mg/ml; Sigma), and EDTA (0.2 mg/ml; Sigma) in Hank’s Balanced Salt Solution (HBSS; Invitrogen) without Ca^2+ and Mg[2]. Then, the cerebral cortices of P0 CD1 mice were dissected out and placed for 5 minutes at 37 °C in a medium containing the stock papain solution in HBSS with Ca^2+ and Mg^2+ (1:10; Invitrogen) in order to easily remove the meninges. […] The resulting enriched oligodendrocyte progenitor cell suspension was counted and seeded.
OPCs were placed on coverslips coated with poly-L-lysine (Sigma) and laminin (Sigma; 2 × 10^4 cells/well) and they were incubated with the inhibitors (VP3.15 or TDZD8; 1 μM) in the serum free medium described above. After 42 h in culture, BrdU (50 μM; Sigma) was added for 6 h and after a total of 72 h in culture, the cells were fixed and BrdU incorporation was detected by immunocytochemistry (1:20; G3G4, HybridomaBank) combined with the detection of the oligodendroglial marker Olig2 (1:250; Millipore; Cat#AB9610). […]

[2] = tested on: GSK-3; set-up: method as in PMID 24437940; settings: read-out: GSK-3 inhibition IC50; cited from earlier work
[3] = tested on: adult human OPCs; assay: Differentiation assay, adult human OPCs; format: cell-based; settings: adult human OPCs, 1 μM, 5 DIV
Procedure: Human brain samples were obtained from adult patients of temporal lobe epilepsy resistant to pharmacological treatment or traumatic brain injury; they underwent surgical treatment by the Neurosurgery Service at the Hospital Universitario de La Princesa (Madrid, Spain) and Hospital 12 de Octubre (Madrid, Spain). All tissue samples were obtained under protocols approved by the Research Ethics Committee of Toledo (Spain) review boards. All were conducted in accordance with the Helsinki Declaration and were approved by the Research Ethics Committee of Toledo (Spain). All patients provided informed consent prepared under the guidelines of the Research Ethics Committee at their respective hospital in Madrid (Spain).
For cells obtained from human biopsies, the same protocol was used except that papain solution was used 1:2.5 in HBSS for 10 minutes for meningeal disintegration and 1:10 in HBSS for 15 minutes for the tissue digestion, 25 cm[2] flasks were used, the medium was supplemented with 10 ng/ml of human PDGF-AA (Millipore) for 2 weeks and then incubated for 2 more weeks without growth factors before shaking and the shaking was carried out at 230 rpm instead of 250 rpm.
(§1) Purified OPCs were placed on coverslips coated with poly-L-lysine and laminin in 24-well tissue culture dishes at a density of 2 × 10^4 cells/well. To promote differentiation, the cells were maintained in the differentiation medium (described above) and PDE7-GSK3 or GSK3 inhibitors (VP3.15 or TDZD8; 1 μM) were added to the culture medium. Different controls were used for the dual or single inhibitors due to the active substance being dissolved in differing amounts of DMSO. After 5, 7 and 10 DIV the cells were fixed with 4% PFA for further immunocytochemical analysis. Anti-CNPase antibodies (1:200;Covance; Cat#SMI-91R), anti-MBP antibodies (1:200; Serotec; Cat#MCA4095) for detecting oligodendrocytes and anti-Olig2 antibodies (1:250; Millipore; Cat#AB9610) as a marker for all oligodendroglial stages were used. Ten random fluorescence digital images were taken in each coverslip with a DFC480 FX digital camera (Leica) coupled to a Leica DM5000 B microscope for quantification. Data were expressed as a mean ratio of differentiated oligodendrocytes (CNPase^+-Olig2^+ double positive cells) with respect to total Olig2^+ cells ± SEM or percentage of CNPase^+ cells respect to control ± SEM, in at least three independent experiments, except with human samples (two independent experiments).

[4] = tested on: PDE7; set-up: method as in PMID 24437940; settings: cited from earlier work
[5] = tested on: cerebellar slices demyelinated with LPC; assay: Ex vivo remyelination in cerebellar slice cultures demyelinated with LPC; format: cell-based, CD1 P7 mice; settings: 5 μM, 3 days post lesion (3DPL)
Procedure: The protocol used was modified from previously described. CD1 P7 mice were decapitated, and their cerebella were dissected into ice-cold HBSS (Invitrogen). 300 μm sagittal slices of cerebellum were cut using a McIllwain tissue chopper, placed on Millicell-CM organotypic culture inserts (3 slices per insert; Millipore) in a medium containing HBSS:BME: horse serum (1:2:1, Invitrogen), 28 mM D (+) - glucose (Normapur), […] L-Glutamine (Invitrogen) and 100 U/mL penicillin, 0.1 mg/mL streptomycin and 0.25 μg/ml Amphotericin B antibiotic anti-mycotic solution (Sigma) and maintained at 5% CO2 and 37 °C. Medium was changed every two days, and after 7 days in culture, demyelination was induced by addition of 0.5 mg/ml LPC (Sigma) to the medium for 15 h. After that, slices were treated with fresh medium containing PDE7-GSK3 or GSK3 inhibitors (VP1.15, VP3.15 or TDZD8; 5 μM). Cultures were maintained for 1 or 3 days post lesion (DPL), and then fixed for 40 minutes and immunostained with anti-MBP antibodies (myelin basic protein –as a marker of myelin; 1:200; Serotec; Cat#MCA4095) and anti-neurofilament antibody (as a marker of axons; 1:200; Abcam; Cat#ab8135). Fluorescence images were taken on a confocal SP5 resonant scanner (Leica Microsystems) at 1μm intervals in white matter areas at x40 magnification. The photographs were merged and co-localisation of both markers was quantified with Image J software using the colocalization highlighter plugin. This measurement was related to the area occupied by axons (neurofilament staining) and normalized with control values showing the data as the mean normalized myelination index ± SEM. Quantification was made in at least three independent experiments.

[6] = tested on: OPCs isolated from P0 mice; assay: Differentiation assay, murine OPCs; format: cell-based, mouse; settings: murine P0 OPCs, 1 μM, 5, 7 and 10 DIV
Procedure: (§2) We isolated OPCs, as previously described. Briefly, a stock papain solution was prepared containing ([…]; Worthington Biochemical), L-cysteine (0.2 mg/ml; Sigma), and EDTA (0.2 mg/ml; Sigma) in Hank’s Balanced Salt Solution (HBSS; Invitrogen) without Ca^2+ and Mg[2]. Then, the cerebral cortices of P0 CD1 mice were dissected out and placed for 5 minutes at 37 °C in a medium containing the stock papain solution in HBSS with Ca^2+ and Mg^2+ (1:10; Invitrogen) in order to easily remove the meninges. Once meninges and choroid plexus were removed, the tissue was enzymatically dissociated for 5 minutes at 37 °C again by using the papain solution (1:10 in HBSS without Ca^2+ and Mg^2+) and the digested tissue was then filtered through a 100 μm nylon mesh strainer (BD Biosciences) and seeded on poly-L-ornithine-coated (Sigma) 75 cm^2 flasks in DMEM medium (Invitrogen) containing 10% foetal bovine serum (FBS; BioWhittaker) and 100 U/mL penicillin, 0.1 mg/mL streptomycin and 0.25 μg/ml Amphotericin B antibiotic antimycotic solution (Sigma). Cultures were maintained at 37 °C and 5% CO2, and the medium was changed every 3 days. When the cultures reached confluence, they were shaken overnight at 250 rpm and at 37 °C in order to detach the OPCs located on the top of the confluent astrocyte monolayer and the medium was then filtered through a 40μm nylon mesh strainer (BDBiosciences) and centrifuged at 900 rpm. Cells were seeded twice (45 minutes each) in bacterial grade Petri dishes (Sterilin) to remove microglial cells. The resulting enriched oligodendrocyte progenitor cell suspension was counted and seeded.
as §1

[7] = tested on: OPCs from P0 mice; assay: Survival assay (Casp3+-A2B5+ cells); format: cell-based, mouse; settings: murine P0 OPCs, 1 μM, 2 DIV
Procedure: as §2, with “When the cultures reached confluence, they were shaken overnight at 250 rpm and at 37 °C in order to detach the OPCs located on the top of the confluent astrocyte monolayer and the medium was then filtered through a 40μm nylon mesh strainer (BDBiosciences) and centrifuged at 900 rpm. Cells were seeded twice (45 minutes each) in bacterial grade Petri dishes (Sterilin) to remove microglial cells.” left out, “seeded. […]” for “seeded.”

Cn1sc(=O)n(Cc2ccccc2)c1=O [TDZD8, reference compound]
OPC proliferation (BrdU+-Olig2+ cells) [1]: no changes | IC50 [2]: 690 nM | number of CNPase+-Olig2+ cells vs control (differentiation) [3]: did not show any effect | PDE7 inhibition [4]: does not inhibit PDE7 | IC50 ([4]; read-out: PDE7 inhibition IC50): > 100000 nM | remyelination (normalized myelination index) [5]: no effect | number of mature oligodendrocytes (CNPase+-Olig2+ cells) vs control [6]: no effect | OPC survival (Casp3+-A2B5+ apoptotic cells) [7]: increased OPC survival
